Reference: publication PMC8968748 (Journal of medicinal chemistry, 2021)
Like-named read-outs stand apart in the source and are kept apart here.

How the values were obtained:
IDH1 R132H = IDH1 R132H (Homo sapiens, UniProt O75874, R132H); assay: diaphorase/resazurin-coupled mIDH1 R132H enzyme assay; type: biochemical; conditions: for IC50: average of N = 3, reported only where ≥75% inhibition at 38 μM; for mIDH1 inhibitory activity: R132H and R132C mIDH1, Table 2 is an image; for fold improvement in potency compared to analog 70: mIDH1 R132H, relative to 70; for IDH1 R132H IC50 Fold improvement over 87: relative to compound 87
[1] = Parallel artificial membrane permeability assay; type: in vitro ADME; conditions: pH 7.4
IDH1 R132C = IDH1 R132C (Homo sapiens, UniProt O75874, R132C); assay: diaphorase/resazurin-coupled mIDH1 R132C enzyme assay; type: biochemical; conditions: for IDH1 R132C IC50 Fold improvement over 87: relative to compound 87
IDH1 R132C, sequence (O75874 whole entry R132C): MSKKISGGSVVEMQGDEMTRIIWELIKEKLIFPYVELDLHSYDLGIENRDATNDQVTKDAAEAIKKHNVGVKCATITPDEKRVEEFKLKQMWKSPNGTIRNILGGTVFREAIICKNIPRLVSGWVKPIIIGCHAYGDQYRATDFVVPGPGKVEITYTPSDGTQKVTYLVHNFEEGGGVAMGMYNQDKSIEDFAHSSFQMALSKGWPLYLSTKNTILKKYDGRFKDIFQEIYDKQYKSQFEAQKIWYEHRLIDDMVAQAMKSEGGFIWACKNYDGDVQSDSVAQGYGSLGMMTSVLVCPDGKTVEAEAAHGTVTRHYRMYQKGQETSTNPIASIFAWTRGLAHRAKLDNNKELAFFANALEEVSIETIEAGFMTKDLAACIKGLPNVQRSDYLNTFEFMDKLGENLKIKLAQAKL

IDH1 R132H, sequence (O75874 whole entry R132H): as the sequence (O75874 whole entry R132C) above, with C132H counted along it

3-(4-(4-Chlorophenyl)thiazol-2-yl)-1-(2-ethyl-6-methylphenyl)-6-(2-methylprop-1-en-1-yl)-5-(piperazine-1-carbonyl)pyridin-2(1H)-one [Compound 115]
IC50 (IDH1 R132H; read-out: IDH1 R132H IC50(μM) ± SD): 0.27 µM

CCc1ccc(OC)cc1-n1c(C=C(C)C)c(C(=O)N2CCNCC2)cc(-c2nc(-c3ccc(Cl)cc3)cs2)c1=O (mixture of isomers) [Compound 118, 3-(4-(4-Chlorophenyl)thiazol-2-yl)-1-(2-ethyl-5-methoxyphenyl)-6-(2-methylprop-1-en-1-yl)-5-(piperazine-1-carbonyl)pyridin-2(1H)-one]
PAMPA (10^−6 cm/s) [1]: 549 10^−6 cm/s

CCc1ccc(OC)cc1-n1c(C=C(C)C)c(C(=O)N2CCNCC2)cc(-c2nc(-c3ccc(Cl)cc3)cs2)c1=O (single isomer, unassigned) [(−)-118]
IC50 (IDH1 R132H; IDH1 R132H IC50(μM) ± SD): 0.42 ± 0.05 µM

CCc1ccc(Cl)cc1-n1c(C=C(C)C)c(C(=O)N2CCNCC2)cc(-c2nc(-c3ccc(Cl)cc3)cs2)c1=O (single isomer, unassigned) [(−)-119]
IC50 (IDH1 R132H; IDH1 R132H IC50(μM) ± SD): 0.25 ± 0.04 µM

COc1ccc(OC)c(-n2cccc(-c3nc(-c4ccc(Cl)cc4)cs3)c2=O)c1 [Compound 2, 3-(4-(4-Chlorophenyl)thiazol-2-yl)-1-(2,5-dimethoxyphenyl)pyridin-2(1H)-one]
mIDH1 inhibitory activity (IDH1 R132H): completely inactive

COc1ccc(OC)c(-n2c(C)ccc(-c3nc(-c4ccc(Cl)cc4)cs3)c2=O)c1 [Compound 3, 3-(4-(4-Chlorophenyl)thiazol-2-yl)-1-(2,5-dimethoxyphenyl)-6-methylpyridin-2(1H)-one]
mIDH1 inhibitory activity (IDH1 R132H): completely inactive

COc1ccc(OC)c(-n2c3c(cc(-c4nc(-c5ccccc5)cs4)c2=O)C(=O)CC(C)(C)C3)c1 [Compound 11, 1-(2,5-Dimethoxyphenyl)-7,7-dimethyl-3-(4-phenylthiazol-2-yl)-7,8-dihydroquinoline-2,5(1H,6H)-dione]
mIDH1 inhibitory activity (IDH1 R132H): essentially equipotent to 1 against R132H mIDH1

COc1ccc(OC)c(-n2c3c(cc(-c4cccc(-c5ccc(Cl)cc5)c4)c2=O)C(=O)CC(C)(C)C3)c1 [Compound 23, 3-(4’-Chloro-[1,1’-biphenyl]-3-yl)-1-(2,5-dimethoxyphenyl)-7,7-dimethyl-7,8-dihydroquinoline-2,5(1H,6H)-dione]
mIDH1 inhibitory activity (IDH1 R132H): complete loss in mIDH1 inhibitory activity

COc1ccc(OC)c(-n2c3c(cc(-c4ccc(-c5ccccc5)cc4)c2=O)C(=O)CC(C)(C)C3)c1 [Compound 24, 3-([1,1’-Biphenyl]-4-yl)-1-(2,5-dimethoxyphenyl)-7,7-dimethyl-7,8-dihydroquinoline-2,5(1H,6H)-dione]
mIDH1 inhibitory activity (IDH1 R132H): complete loss in mIDH1 inhibitory activity

COc1ccc(OC)c(-n2c3c(cc(-c4cccc(-c5ccc(Cl)cc5)n4)c2=O)C(=O)CC(C)(C)C3)c1 [Compound 25, 3-(6-(4-Chlorophenyl)pyridin-2-yl)-1-(2,5-dimethoxyphenyl)-7,7-dimethyl-7,8-dihydroquinoline-2,5(1H,6H)-dione]
mIDH1 inhibitory activity (IDH1 R132H): retained some activity

CCOc1ccccc1-n1c2c(cc(-c3nc(-c4ccc(Cl)cc4)cs3)c1=O)C(=O)CC(C)(C)C2 [Compound 29, 3-(4-(4-Chlorophenyl)thiazol-2-yl)-1-(2-ethoxyphenyl)-7,7-dimethyl-7,8-dihydroquinoline-2,5(1H,6H)-dione]
IC50 (IDH1 R132H; IDH1 R132H IC50(μM) ± SD): 0.51 ± 0.03 µM

CC(c1ccccc1)n1c2c(cc(-c3nc(-c4ccc(Cl)cc4)cs3)c1=O)C(=O)CC(C)(C)C2 (stereo not drawn) [Compound 48, 3-(4-(4-Chlorophenyl)thiazol-2-yl)-7,7-dimethyl-1-(1-phenylethyl)-7,8-dihydroquinoline-2,5(1H,6H)-dione]
inhibition at 38 µM (IDH1 R132C; read-out: IDH1 R132C % inhibition ± SD at 38 μM): 34 ± 1%
IC50 (IDH1 R132H; IDH1 R132H IC50(μM) ± SD): > 38 µM

COc1cc(C(=O)O)ccc1-n1c2c(cc(-c3nc(-c4ccc(Cl)cc4)cs3)c1=O)C(=O)CC(C)(C)C2 [Compound 57, 4-(3-(4-(4-Chlorophenyl)thiazol-2-yl)-7,7-dimethyl-2,5-dioxo-5,6,7,8-tetrahydroquinolin-1(2H)-yl)-3-methoxybenzoic acid]
IC50 (IDH1 R132H; IDH1 R132H IC50(μM) ± SD): > 38 µM

CCc1cccc(CC)c1-n1c(C)c(C(=O)NCCO)cc(-c2nc(-c3ccc(Cl)cc3)cs2)c1=O [Compound 75, 5-(4-(4-Chlorophenyl)thiazol-2-yl)-1-(2,6-diethylphenyl)-N-(2-hydroxyethyl)-2-methyl-6-oxo-1,6-dihydropyridine-3-carboxamide]
fold improvement in potency compared to analog 70 (IDH1 R132H): 3 fold

CCc1cccc(CC)c1-n1c(C)c(C(=O)NCCN)cc(-c2nc(-c3ccc(Cl)cc3)cs2)c1=O [Compound 78, N-(2-Aminoethyl)-5-(4-(4-chlorophenyl)thiazol-2-yl)-1-(2,6-diethylphenyl)-2-methyl-6-oxo-1,6-dihydropyridine-3-carboxamide]
fold improvement in potency compared to analog 70 (IDH1 R132H): 3 fold

CCCc1c(C(=O)N2CCNCC2)cc(-c2nc(-c3ccc(Cl)cc3)cs2)c(=O)n1-c1c(CC)cccc1CC [Compound 89, 3-(4-(4-Chlorophenyl)thiazol-2-yl)-1-(2,6-diethylphenyl)-5-(piperazine-1-carbonyl)-6-propylpyridin-2(1H)-one]
IDH1 R132C IC50 Fold improvement over 87 (IDH1 R132C): 15 fold
IDH1 R132H IC50 Fold improvement over 87 (IDH1 R132H): 2.8 fold
PAMPA (10^−6 cm/s) [1]: 134 10^−6 cm/s

CCc1cccc(CC)c1-n1c(CC(C)C)c(C(=O)N2CCNCC2)cc(-c2nc(-c3ccc(Cl)cc3)cs2)c1=O [Compound 91, 3-(4-(4-Chlorophenyl)thiazol-2-yl)-1-(2,6-diethylphenyl)-6-isobutyl-5-(piperazine-1-carbonyl)pyridin-2(1H)-one]
IDH1 R132C IC50 Fold improvement over 87 (IDH1 R132C): 13 fold
IDH1 R132H IC50 Fold improvement over 87 (IDH1 R132H): 1.9 fold
PAMPA (10^−6 cm/s) [1]: 16 10^−6 cm/s

CCc1cccc(CC)c1-n1c(C=C(C)C)c(C(=O)N2CCNCC2)cc(-c2nc(-c3ccc(Cl)cc3)cs2)c1=O [Compound 92, 3-(4-(4-Chlorophenyl)thiazol-2-yl)-1-(2,6-diethylphenyl)-6-(2-methylprop-1-en-1-yl)-5-(piperazine-1-carbonyl)pyridin-2(1H)-one]
IDH1 R132C IC50 Fold improvement over 87 (IDH1 R132C): 26 fold
IDH1 R132H IC50 Fold improvement over 87 (IDH1 R132H): 4.8 fold
PAMPA (10^−6 cm/s) [1]: 225 10^−6 cm/s

CCc1cccc(CC)c1-n1c(CC2CC2)c(C(=O)N2CCNCC2)cc(-c2nc(-c3ccc(Cl)cc3)cs2)c1=O [Compound 93, 3-(4-(4-Chlorophenyl)thiazol-2-yl)-6-(cyclopropylmethyl)-1-(2,6-diethylphenyl)-5-(piperazine-1-carbonyl)pyridin-2(1H)-one]
IDH1 R132C IC50 Fold improvement over 87 (IDH1 R132C): 31 fold
IDH1 R132H IC50 Fold improvement over 87 (IDH1 R132H): 3.8 fold
PAMPA (10^−6 cm/s) [1]: 43 10^−6 cm/s

CCc1cccc(CC)c1-n1c(C=C(C)C)c(C(=O)N2CCNCC2C)cc(-c2nc(-c3ccc(Cl)cc3)cs2)c1=O (stereo not drawn) [Compound 100, 3-(4-(4-Chlorophenyl)thiazol-2-yl)-1-(2,6-diethylphenyl)-5-(2-methylpiperazine-1-carbonyl)-6-(2-methylprop-1-en-1-yl)pyridin-2(1H)-one]
PAMPA (10^−6 cm/s) [1]: 40 10^−6 cm/s

CCc1cccc(CC)c1-n1c(C=C(C)C)c(C(=O)N2CCNC3(CC3)C2)cc(-c2nc(-c3ccc(Cl)cc3)cs2)c1=O [Compound 103, 3-(4-(4-Chlorophenyl)thiazol-2-yl)-1-(2,6-diethylphenyl)-6-(2-methylprop-1-en-1-yl)-5-(4,7-diazaspiro[2.5]octane-7-carbonyl)pyridin-2(1H)-one]
PAMPA (10^−6 cm/s) [1]: 48 10^−6 cm/s

CCc1cccc(CC)c1-n1c(C=C(C)C)c(C(=O)N2CCNC(=O)C2)cc(-c2nc(-c3ccc(Cl)cc3)cs2)c1=O [Compound 105, 4-(5-(4-(4-Chlorophenyl)thiazol-2-yl)-1-(2,6-diethylphenyl)-2-(2-methylprop-1-en-1-yl)-6-oxo-1,6-dihydropyridine-3-carbonyl)piperazin-2-one]
PAMPA (10^−6 cm/s) [1]: 275 10^−6 cm/s

CCc1cccc(CC)c1-n1c(C=C(C)C)c(C(=O)N2CCNC(C(=O)O)C2)cc(-c2nc(-c3ccc(Cl)cc3)cs2)c1=O (stereo not drawn) [Compound 108, 4-(5-(4-(4-Chlorophenyl)thiazol-2-yl)-1-(2,6-diethylphenyl)-2-(2-methylprop-1-en-1-yl)-6-oxo-1,6-dihydropyridine-3-carbonyl)piperazine-2-carboxylic acid]
PAMPA (10^−6 cm/s) [1]: <1 10^−6 cm/s

CCc1cccc(CC)c1-n1c(C=C(C)C)c(C(=O)N2C[C@H]3CC[C@@H](C2)N3)cc(-c2nc(-c3ccc(Cl)cc3)cs2)c1=O [Compound 111, 5-((1R,5S)-3,8-Diazabicyclo[3.2.1]octane-3-carbonyl)-3-(4-(4-chlorophenyl)thiazol-2-yl)-1-(2,6-diethylphenyl)-6-(2-methylprop-1-en-1-yl)pyridin-2(1H)-one]
PAMPA (10^−6 cm/s) [1]: 89 10^−6 cm/s

CCc1cccc(CC)c1-n1c(C=C(C)C)c(C(=O)N2C3CCC2CNC3)cc(-c2nc(-c3ccc(Cl)cc3)cs2)c1=O [Compound 112, 5-(3,8-Diazabicyclo[3.2.1]octane-8-carbonyl)-3-(4-(4-chlorophenyl)thiazol-2-yl)-1-(2,6-diethylphenyl)-6-(2-methylprop-1-en-1-yl)pyridin-2(1H)-one]
PAMPA (10^−6 cm/s) ([1]; PAMPA, 30 min, 0.05 mM): 99 10^−6 cm/s

CC(C)=Cc1c(C(=O)N2CCNCC2)cc(-c2nc(-c3ccc(Cl)cc3)cs2)c(=O)n1-c1ccccc1 [Compound 113, 3-(4-(4-Chlorophenyl)thiazol-2-yl)-6-(2-methylprop-1-en-1-yl)-1-phenyl-5-(piperazine-1-carbonyl)pyridin-2(1H)-one]
fold drop in R132C potency (IDH1 R132C; relative to 92): 55 fold
fold drop in R132H potency (IDH1 R132H; relative to 92): 7.5 fold
